Experimental data as given in paper PMC9467556, “Identification of novel pyrrolopyrimidine and pyrrolopyridine derivatives as potent ENPP1 inhibitors” (Journal of Enzyme Inhibition and Medicinal Chemistry, 2022).
Counter-ions that a name gives are not always drawn.

Target: T1, human recombinant ENPP1 (Homo sapiens, UniProt P22413)
T1 construct: purchased R&D systems
T1 sequence (P22413 1-925): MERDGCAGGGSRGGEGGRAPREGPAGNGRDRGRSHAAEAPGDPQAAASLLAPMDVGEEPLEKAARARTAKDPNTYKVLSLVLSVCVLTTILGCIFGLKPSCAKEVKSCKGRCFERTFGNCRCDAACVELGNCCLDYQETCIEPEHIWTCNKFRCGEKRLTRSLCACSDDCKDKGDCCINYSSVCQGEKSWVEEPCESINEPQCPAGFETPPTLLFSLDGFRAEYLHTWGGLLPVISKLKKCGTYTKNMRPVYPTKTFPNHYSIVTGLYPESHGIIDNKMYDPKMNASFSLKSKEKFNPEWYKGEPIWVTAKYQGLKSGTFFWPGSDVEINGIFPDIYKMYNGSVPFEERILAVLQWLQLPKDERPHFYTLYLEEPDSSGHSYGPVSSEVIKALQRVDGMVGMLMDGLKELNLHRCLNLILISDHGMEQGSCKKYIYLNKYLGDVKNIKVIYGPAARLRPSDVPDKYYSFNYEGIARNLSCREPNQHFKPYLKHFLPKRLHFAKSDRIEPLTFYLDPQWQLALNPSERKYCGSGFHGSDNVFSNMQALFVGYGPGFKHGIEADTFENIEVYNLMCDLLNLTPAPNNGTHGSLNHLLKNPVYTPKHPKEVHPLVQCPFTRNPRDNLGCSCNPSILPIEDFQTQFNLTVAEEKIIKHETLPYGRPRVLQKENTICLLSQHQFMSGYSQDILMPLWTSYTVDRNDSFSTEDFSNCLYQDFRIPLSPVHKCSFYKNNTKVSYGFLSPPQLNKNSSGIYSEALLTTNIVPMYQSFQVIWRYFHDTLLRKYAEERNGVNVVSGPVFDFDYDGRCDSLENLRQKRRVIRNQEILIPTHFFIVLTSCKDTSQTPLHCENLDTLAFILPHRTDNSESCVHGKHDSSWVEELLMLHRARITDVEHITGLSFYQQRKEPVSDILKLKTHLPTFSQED
Assay: in vitro recombinant human ENPP1 enzymatic assay (AMP-Glo, cGAMP substrate)
Format: biochemical
Conditions: for % inhibition: ENPP1, test concentration not given; for IC50: average ± SD from two or three independent repeats
Text: ENPP1 hydrolyses nucleotides or nucleotide derivatives and produces nucleoside-5′-monophosphates and pyrophosphates. ENPP1 also hydrolyses 2′3′-cGAMP and produces 5′-adenosine monophosphate (AMP) and 5′ guanosine monophosphate (GMP). The produced AMP from the reaction is detected using the AMP-Glo® kit (Promega). The assay kit consists of two reagents; one to terminate the AMP-generating enzymatic reaction, remove ATP and convert AMP produced into ADP, and a second reagent to convert ADP to ATP, which is used to generate a luminescence in a luciferase reaction. The amount of light measured is proportional to the amount of AMP produced by ENPP1.
The final assay reaction mixture contains a buffer of 50 mM Tris (pH 8.5), 250 mM NaCl, 0.5 mM CaCl2, 1 μM ZnCl2, 5% glycerol and 1% DMSO. Serially diluted ENPP1 inhibitors (usually range from 10 μM to 0.5 nM) are pre-incubated with human recombinant ENPP1 enzyme (R&D systems) at 3 ng/reaction for 5–10 min at room temperature (RT). The reaction is initiated by adding cGAMP (at final concentration of 5 μM) and incubating for 90 min at 37 °C. At the end of incubation, the reaction is stopped by adding 10 μL of AMP-Glo reagent I and followed by incubation at RT for one hour. After incubation, 20 μL of AMP detection solution (mixture of AMP-Glo II reagent and Kinase-Glo one at 1:100 ratio) is added and incubated at RT for one hour. The luminescence signal generated is measured using the ClarioStar plate reader (BMG Labtech). Maximal activity control (containing enzyme and substrate in presence of 1% DMSO only; MAX) and background control (containing substrate and 1% DMSO; MIN) are evaluated simultaneously. In each experiment, serially diluted reference ENPP1 inhibitor is tested together. The IC50 values for % remaining activity versus compound concentration are determined by fitting the inhibition curves using a three-parameter variable method in GraphPad Prism® software. Triplicate wells are run at each inhibitor concentration and averaged IC50 value for each compound is calculated.

Row | Structure (SMILES) | % inhibition (Table 1) [%] | IC50 (Table 1) [nM] | % inhibition (Table 2) [%] | IC50 (Table 2) [nM]
1 | NS(=O)(=O)NCCC1CCN(c2ncnc3[nH]ccc23)CC1 [18a, N-(2–(1-(7H-Pyrrolo[2,3-d]pyrimidin-4-yl)piperidin-4-yl)ethyl)methanesulfamide hydrochloride] | 99 | – | – | –
2 | CSc1nc(N2CCC(CCNS(N)(=O)=O)CC2)c2cc[nH]c2n1 [18b] | 34 | 21610 ± 2.16 | – | –
3 | NS(=O)(=O)NCC1CCN(c2ncnc3[nH]ccc23)CC1 [18c, N-((1–(7H-Pyrrolo[2,3-d]pyrimidin-4-yl)piperidin-4-yl)methyl)methanesulfamide hydrochloride] | 100 | 19 ± 0.016 | – | –
4 | Cn1ccc2c(N3CCC(CNS(N)(=O)=O)CC3)ncnc21 [18d, N-((1–(7-Methyl-7H-pyrrolo[2,3-d]pyrimidin-4-yl)piperidin-4-yl)methyl)methanesulfamide hydrochloride] | 100 | 51.4 ± 0.002 | – | –
5 | CC(C)n1ccc2c(N3CCC(CNS(N)(=O)=O)CC3)ncnc21 [18e, N-((1–(7-Isopropyl-7H-pyrrolo[2,3-d]pyrimidin-4-yl)piperidin-4-yl)methyl)methanesulfamide hydrochloride] | 75 | 20660 ± 5.02 | – | –
6 | NS(=O)(=O)NCC1CCN(c2ncnc3c2ccn3C2CC2)CC1 [18f, N-((1–(7-Cyclopropyl-7H-pyrrolo[2,3-d]pyrimidin-4-yl)piperidin-4-yl)methyl)methanesulfamide hydrochloride hydrochloride] | 100 | 74 ± 0.052 | – | –
7 | NS(=O)(=O)NCC1CCN(c2ncnc3c2ccn3-c2ccccc2)CC1 [18g, N-((1–(7-Phenyl-7H-pyrrolo[2,3-d]pyrimidin-4-yl)piperidin-4-yl)methyl)methanesulfamide hydrochloride hydrochloride] | 99 | 298 ± 0.041 | – | –
8 | NS(=O)(=O)NCC1CCN(c2ncnc3c2ccn3-c2ccc(F)cc2)CC1 [18h, N-((1–(7-(4-Fluorophenyl)-7H-pyrrolo[2,3-d]pyrimidin-4-yl)piperidin-4-yl)methyl)methanesulfamide hydrochloride] | 54 | – | – | –
9 | COc1ccc(-n2ccc3c(N4CCC(CNS(N)(=O)=O)CC4)ncnc32)cc1 [18i, N-((1–(7-(4-Methoxyphenyl)-7H-pyrrolo[2,3-d]pyrimidin-4-yl)piperidin-4-yl)methyl)methanesulfamide hydrochloride] | 37 | – | – | –
10 | NS(=O)(=O)NCC1CCN(c2ncnc3c2ccn3Cc2ccccc2)CC1 [18j, N-((1–(7-Benzyl-7H-pyrrolo[2,3-d]pyrimidin-4-yl)piperidin-4-yl)methyl)methanesulfamide hydrochloride] | 17 | – | – | –
11 | NS(=O)(=O)NCC1CCN(c2ncnc3c2ccn3-c2ccoc2)CC1 [18k, N-((1–(7-(Furan-3-yl)-7H-pyrrolo[2,3-d]pyrimidin-4-yl)piperidin-4-yl)methyl)methanesulfamide hydrochloride] | 100 | 54.1 ± 0.001 | – | –
12 | NS(=O)(=O)NCC1CCN(c2ncnc3c2ccn3-c2cccnc2)CC1 [18l, N-((1-(7-(Pyridin-3-yl)-7H-pyrrolo[2,3-d]pyrimidin-4-yl)piperidin-4-yl)methyl)methanesulfamide hydrochloride] | 71 | 1853 ± 1.16 | – | –
13 | Cc1c[nH]c2ncnc(N3CCC(CNS(N)(=O)=O)CC3)c12 [18m, N-((1–(5-Methyl-7H-pyrrolo[2,3-d]pyrimidin-4-yl)piperidin-4-yl)methyl)methanesulfamide hydrochloride] | 94 | 462 ± 0.17 | – | –
14 | Cc1cc2c(N3CCC(CNS(N)(=O)=O)CC3)ncnc2[nH]1 [18n, N-((1–(6-Methyl-7H-pyrrolo[2,3-d]pyrimidin-4-yl)piperidin-4-yl)methyl)methanesulfamide hydrochloride] | 99 | 218 ± 0.019 | – | –
15 | CC(NS(N)(=O)=O)C1CCN(c2ncnc3[nH]ccc23)CC1 (stereo not drawn) [18o, N-(1–(1-(7H-Pyrrolo[2,3-d]pyrimidin-4-yl)piperidin-4-yl)ethyl)methanesulfamide hydrochloride] | 99 | 250 ± 0.028 | – | –
16 | NS(=O)(=O)NC1CCN(c2ncnc3[nH]ccc23)CC1 [18q, N-(1-(7H-Pyrrolo[2,3-d]pyrimidin-4-yl)piperidin-4-yl)methanesulfamide hydrochloride] | 71 | 3323 ± 0.298 | – | –
17 | Cl.O=S(=O)(NCC1CCN(c2ncnc3[nH]ccc23)CC1)c1cccs1 [20a, N-((1-(7H-Pyrrolo[2,3-d]pyrimidin-4-yl)piperidin-4-yl)methyl)thiophene-2-sulfonamide hydrochloride] | 37 | – | – | –
18 | Cc1ccc(S(=O)(=O)NCC2CCN(c3ncnc4[nH]ccc34)CC2)cc1.Cl [20b, N-((1-(7H-Pyrrolo[2,3-d]pyrimidin-4-yl)piperidin-4-yl)methyl)-4-methylbenzenesulfonamide hydrochloride] | 62 | – | – | –
19 | Cl.O=S(=O)(NCC1CCN(c2ncnc3[nH]ccc23)CC1)C1CC1 [20c, N-((1-(7H-Pyrrolo[2,3-d]pyrimidin-4-yl)piperidin-4-yl)methyl)cyclopropanesulfonamide hydrochloride] | 22 | – | – | –

Results, then the compound that gave them:

Row | % inhibition (Table 1) [%] | IC50 (Table 1) [nM] | % inhibition (Table 2) [%] | IC50 (Table 2) [nM] | Structure (SMILES)
20 | – | – | 0 | – | NS(=O)(=O)Nc1ccc(-c2ncnc3[nH]ccc23)cc1 [25a]
21 | – | – | 33 | – | NS(=O)(=O)Nc1ccc(-c2ccnc3[nH]ccc23)cc1 [25b, N-(4-(1H-Pyrrolo[2,3-b]pyridin-4-yl)phenyl)methanesulfamide hydrochloride]
22 | – | – | 73 | – | NS(=O)(=O)NCc1ccc(-c2ncnc3[nH]ccc23)cc1F [25c, N-(2-Fluoro-4-(7H-pyrrolo[2,3-d]pyrimidin-4-yl)benzyl)methanesulfamide hydrochloride]
23 | – | – | 76 | 7597 ± 1.27 | NS(=O)(=O)NCc1ccc(-c2ncnc3[nH]ccc23)cc1 [25d, N-(4-(7H-Pyrrolo[2,3-d]pyrimidin-4-yl)benzyl)methanesulfamide hydrochloride]
24 | – | – | 72 | – | Cn1ccc2c(-c3ccc(CNS(N)(=O)=O)cc3)ncnc21 [25e, N-(4-(7-Methyl-7H-pyrrolo[2,3-d]pyrimidin-4-yl)benzyl)methanesulfamide hydrochloride]
25 | – | – | 53 | 4769 ± 0.455 | NS(=O)(=O)NCc1cccc(-c2ncnc3[nH]ccc23)c1 [25g, N-(3-(7H-Pyrrolo[2,3-d]pyrimidin-4-yl)benzyl)methanesulfamide hydrochloride]
26 | – | – | 98 | 1466 ± 0.044 | CC(C)(NS(N)(=O)=O)c1ccc(-c2ncnc3[nH]ccc23)cc1 [25h, N-(2–(4-(7H-Pyrrolo[2,3-d]pyrimidin-4-yl)phenyl)propan-2-yl)methanesulfamide hydrochloride]
27 | – | – | 100 | – | CC(NS(N)(=O)=O)c1ccc(-c2ncnc3[nH]ccc23)cc1 (stereo not drawn) [25j, N-(1–(4-(7H-Pyrrolo[2,3-d]pyrimidin-4-yl)phenyl)ethyl)methanesulfamide hydrochloride]
